Results: ChEMBL document CHEMBL3352691, “Meroterpenoids from the alga-derived fungi Penicillium thomii Maire and Penicillium lividum Westling” (J Nat Prod, 2014)
Counter-ions that a name gives are not always drawn. Activity calls are given as the source filed them. No cut-off for these calls is given here.

Assays:
[1] = Inhibition of endo-1,3-beta-D-glucanase in Pseudocardium sachalinensis preincubated for 15 mins by Nelson method
[2] = Cytotoxicity against mouse JB6 Cl41 cells after 2 hrs by MTS assay; assay type: cell-based; conditions: JB6 Cl41, 2 h
[3] = system: MDA-MB-231; assay: Cytotoxicity against human MDA-MB-231 cells after 2 hrs by MTS assay; assay type: functional, cell-based; conditions: MDA-MB-231, 2 h
[4] = Inhibition of AP-1 basal transcriptional activity in mouse JB6 Cl41 cells at 6.25 uM after 12 hrs by luciferase reporter gene assay; assay type: functional; conditions: JB6 Cl41, 12 h
[5] = Cytotoxicity against mouse JB6 Cl41 cells assessed as reduction in cell viability up to 100 uM after 2 hrs by MTS assay; assay type: cell-based; conditions: jb6 cl41, 2 h
[6] = system: JB6 Cl41; assay: Inhibition of AP-1 basal transcriptional activity in mouse JB6 Cl41 cells at non cytotoxic concentration after 12 hrs by luciferase reporter gene assay; assay type: functional, cell-based

IC50 [1]	SMILES	IC50 [2]	IC50 [3]	inhibition at 6.25 µM [4]	Activity [5]	inhibition [6]
1000 µM	C=C(C)[C@@H]1CC[C@]2(C)Oc3c(C)c4c(c(OC)c3C[C@@H]2[C@]1(C)CCC(=O)O)C(=O)OC4	< 10 µM	< 10 µM			
250 µM	COc1c2c(c(C)c3c1C(=O)OC3)O[C@@]1(C)C[C@@H](O)[C@]34O[C@](O)(CC[C@]3(C)[C@H]1C2)OC4(C)C					
2 µM	COc1c2c(c(C)c3c1C(=O)OC3)O[C@@]1(C)C[C@@H](O)[C@H]3C(C)(C)OC(=O)CC[C@]3(C)[C@H]1C2	< 10 µM	< 10 µM	27.6%	Non-toxic	Active
0.2 µM	CCCCOC(=O)CC[C@@]1(C)[C@H]2Cc3c(c(C)c4c(c3OC)C(=O)OC4)O[C@@]2(C)C[C@@H](O)[C@H]1C(C)(C)O	< 10 µM	< 10 µM	36.1%	Non-toxic	Active
130 µM	CC(CC[C@@H](C)[C@H]1CC[C@H]2[C@@H]3C[C@H](OS(=O)(=O)O)[C@H]4C[C@H](OS(=O)(=O)O)[C@@H](OS(=O)(=O)O)C[C@]4(C)[C@H]3CC[C@]12C)C(C)(C)C (some centres not stated) [HALISTANOL SULFATE]					
1 µM	COc1c2c(c(C)c3c1C(=O)OC3)O[C@@]1(C)C[C@@H](O)[C@@H](C(C)(C)O)[C@@](C)(CCC(=O)O)[C@H]1C2	< 10 µM	< 10 µM			Active
0.01 µM	COc1c2c(c(C)c3c1C(=O)OC3)O[C@@]1(C)CC[C@@H](C(C)(C)O)[C@@](C)(CCC(=O)O)[C@H]1C2					
0.12 µM	C=C(C)[C@@H]1[C@H](O)C[C@]2(C)Oc3c(C)c4c(c(OC)c3C[C@@H]2[C@]1(C)CCC(=O)O)C(=O)OC4					
0.1 µM	CCCCOC(=O)CC[C@@]1(C)[C@H]2Cc3c(c(C)c4c(c3OC)C(=O)OC4)O[C@@]2(C)CC[C@H]1C(C)(C)O			34%	Non-toxic	
0.01 µM	COc1c2c(c(C)c3c1C(=O)OC3)O[C@@]1(C)CC[C@H]3C(C)(C)OC(=O)CC[C@]3(C)[C@H]1C2	< 10 µM	< 10 µM	36.3%	Non-toxic	Active
